SMILES | melting point
O=C(Cc1nnc(Nc2ccccc2)o1)NC1CCN(Cc2ccc(Cl)c(Cl)c2)CC1 [Compound No. 1 of Table I, N-[1-(3,4-Dichlorobenzyl)-piperidin-4-yl]-2-(5-phenylamino-[1,3,4]oxadiazol-2-yl)-acetamide] | 191 to 217 °C
O=C(Cc1csc(Nc2ccccc2)n1)NC1CCN(Cc2ccc(Cl)c(Cl)c2)CC1 [Compound No. 1 of Table V, 2-(2-Anilino-1,3-thiazol-4-yl)-N-[1-(3,4-dichlorobenzyl)piperidin-4-yl]acetamide] | 191 to 192 °C
O=C(CCc1nnc(Nc2ccccc2Cl)o1)NC1CCN(Cc2ccc(Cl)c(Cl)c2)CC1 [Compound No. 6 of Table I, 3-[5-(2-chloro-phenylamino)-[1,3,4]oxadiazol-2-yl]-N-[1-(3,4-dichloro-benzyl)-piperidin-4-yl]-propionamide] | 154 to 156 °C
O=C(CCc1nnc(Nc2ccccc2Cl)o1)NC1CCN(Cc2ccc(F)c(F)c2)CC1 [Compound No. 22 of Table I, 3-[5-(2-chloro-phenylamino)-[1,3,4]oxadiazol-2-yl]-N-[1-(3,4-difluorobenzyl)-piperidin-4-yl]-propionamide] | 162 to 163 °C

From patent US6958350B2, “Chemical compounds” (AstraZeneca AB, priority 2001, dated 2005)
